Data set [1] has as its target Indoleamine 2,3-dioxygenase 1 (Mus musculus, UniProt P28776). Briefly: Inhibition of mouse IDO1 expressed in mouse P1.HTR cells assessed as inhibition of Kyn production incubated for 16 hrs by HPLC analysis. The class given is cell-based.
For data set [2], the target named is T1, Indoleamine 2,3-dioxygenase 1 (Homo sapiens, UniProt P14902). Kind of data set: Inhibition of recombinant human IDO1 expressed in Escherichia coli BL21(DE3) incubated for 15 mins by Dixon plot analysis.
T1 sequence (P14902 whole entry): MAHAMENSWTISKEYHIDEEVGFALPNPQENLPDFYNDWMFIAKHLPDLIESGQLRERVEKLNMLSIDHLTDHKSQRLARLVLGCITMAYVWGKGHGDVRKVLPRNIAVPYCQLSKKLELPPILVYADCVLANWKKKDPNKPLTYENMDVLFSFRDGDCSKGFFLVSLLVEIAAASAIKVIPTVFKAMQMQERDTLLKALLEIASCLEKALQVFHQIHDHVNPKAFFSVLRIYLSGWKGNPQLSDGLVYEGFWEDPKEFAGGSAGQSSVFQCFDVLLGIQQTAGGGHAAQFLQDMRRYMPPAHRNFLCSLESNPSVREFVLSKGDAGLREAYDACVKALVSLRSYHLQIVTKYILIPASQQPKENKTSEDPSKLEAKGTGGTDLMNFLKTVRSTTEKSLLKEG
The target in data set [3] is Tryptophan 2,3-dioxygenase (Homo sapiens, UniProt P48775). Kind of data set: Inhibition of recombinant human TDO expressed in Escherichia coli Rosetta (DE3) pLysS incubated for 20 mins by Dixon plot analysis.
Tryptophan 2,3-dioxygenase, sequence (P48775 whole entry): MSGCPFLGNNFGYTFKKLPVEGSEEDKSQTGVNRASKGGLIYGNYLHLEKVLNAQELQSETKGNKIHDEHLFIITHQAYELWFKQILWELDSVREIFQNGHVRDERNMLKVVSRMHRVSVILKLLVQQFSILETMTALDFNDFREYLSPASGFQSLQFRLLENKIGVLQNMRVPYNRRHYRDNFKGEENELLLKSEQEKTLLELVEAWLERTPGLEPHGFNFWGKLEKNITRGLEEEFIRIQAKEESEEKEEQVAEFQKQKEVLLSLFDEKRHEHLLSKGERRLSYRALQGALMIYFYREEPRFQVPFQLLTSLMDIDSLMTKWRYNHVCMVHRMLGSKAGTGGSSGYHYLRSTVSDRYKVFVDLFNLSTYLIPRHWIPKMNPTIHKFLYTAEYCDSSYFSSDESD
The target of data set [4] is T1, Indoleamine 2,3-dioxygenase 1. Kind of data set: Binding affinity to recombinant human IDO1 expressed in Escherichia coli BL21 incubated for 4 hrs by UV-Visible Spectroscopy.
For data set [5] the target is unchanged. Kind of data set: Inhibition of IDO1 in human HeLa cells. Type of data set: cell-based.
A further data set has as its system HEK-293T. Kind of data set: Cytotoxicity against HEK293T cells. The settings on record: Homo sapiens. Type of data set: cell-based.
For data set [6], the target named is T1, Indoleamine 2,3-dioxygenase 1. Briefly: Inhibition of human IDO1.
The target is the same in data set [7]. Briefly: Inhibition of human IDO1 incubated for 60 mins using L-tryptophan as substrate by absorbance method.
The target is the same in data set [8]. Kind of data set: Inhibition of human IDO1 using D-Trp as substrate by absorbance method.
Data set [9] shares this target. Briefly: Inhibition of IDO1 in IFN-gamma stimulated human HeLa cells assessed as effect on kynurenine level incubated for 48 hrs by p-dimethylaminobenzaldehyde based assay.
Data set [10] has the same target. Briefly: Inhibition of human N-terminal His-tagged IDO1 expressed in Escherichia coli M15 incubated for 1 hr by UV-Vis spectrophotometric method.
For data set [11] the target is unchanged. Briefly: Inhibition of human IDO1 in IFN-stimulated human MDA-MB-231 cells preincubated for 48 hrs followed by L-tryptophan addition and measured after 5 hrs by UV-Vis spectrophotometric method. The class given is cell-based.
A short description of data set [12]: Cytotoxicity against human HeLa cells incubated for 48 hrs by MTT assay. Type of data set: cell-based. (In general: Formazan colour is commonly taken as a measure of viable cells.)
Data set [13] addresses Protein cereblon/Indoleamine 2,3-dioxygenase 1 (Homo sapiens, UniProt P14902+Q96SW2). Kind of data set: Induction of CRBN-mediated IDO1 degradation in IFNgamma-stimulated human HeLa cells incubated for 24 hrs by Western blot analysis. (In western blotting, separated proteins are transferred to a membrane and probed.)
The target in data set [14] is T1, Indoleamine 2,3-dioxygenase 1. Briefly: Inhibition of recombinant human IDO1 expressed in Escherichia coli BL21(DE3) assessed as effect on kynurenine level using L-tryptophan as substrate incubated for 1 hr by Ehrlich's reagent based assay.
For data set [15] the target is unchanged. Briefly: Inhibition of IDO1 in human SK-OV-3 cells assessed as effect on KYN level using L-tryptophan as substrate incubated for 18 hrs by 4-(dimethylamino)benzaldehyde based absorbance method. Type of data set: cell-based.
Data set [16] in a line: Inhibition of IDO1/TDO2 in human BT-549 cells assessed as suppression of kynurenine using L-tryptophan as substrate for 18 hrs by 4-(dimethylamino)benzaldehyde based absorbance method. Type of data set: cell-based. Conditions: BT-549, 18 h.
Data set [17] has as its target T1, Indoleamine 2,3-dioxygenase 1. Briefly: Inhibition of IDO1 in IFN-gamma stimulated human HeLa cells centrifuged for 10 mins.
For data set [18] the target is unchanged. Kind of data set: Inhibition of human 6His/FLAG-tagged/Avi/TEV-fused IDO1 expressed in Escherichia coli by absorbance method.
Data set [19] has the same target. Kind of data set: Inhibition of IDO1 in IFN-gamma stimulated human HeLa cells assessed as effect on KYN level incubated for 48 hrs by rapidfire-mass spectrometry.
Data set [20] has the same target. Briefly: Inhibition of human His6-tagged IDO1 expressed in Escherichia coli BL21 incubated for 90 mins using L-tryptophan as substrate by fluorescence assay.
Data set [21] shares this target. Kind of data set: Inhibition of IDO1 in IFN-gamma stimulated human HeLa cells.
Data set [22] shares this target. Kind of data set: Inhibition of IDO1 (unknown origin) by cell-based assay.
The target is the same in data set [23]. Briefly: Inhibition of IDO1 (unknown origin).

The values that follow come from ChEMBL document CHEMBL4732103, “Development of Indoleamine 2,3-Dioxygenase 1 Inhibitors for Cancer Therapy and Beyond: A Recent Perspective” (J Med Chem, 2020).

pEC50, pIC50, pKd, pKi: −log10 of the molar value.

Indoleamine 2,3-dioxygenase 1 (Mus musculus, UniProt P28776), sequence (P28776 whole entry): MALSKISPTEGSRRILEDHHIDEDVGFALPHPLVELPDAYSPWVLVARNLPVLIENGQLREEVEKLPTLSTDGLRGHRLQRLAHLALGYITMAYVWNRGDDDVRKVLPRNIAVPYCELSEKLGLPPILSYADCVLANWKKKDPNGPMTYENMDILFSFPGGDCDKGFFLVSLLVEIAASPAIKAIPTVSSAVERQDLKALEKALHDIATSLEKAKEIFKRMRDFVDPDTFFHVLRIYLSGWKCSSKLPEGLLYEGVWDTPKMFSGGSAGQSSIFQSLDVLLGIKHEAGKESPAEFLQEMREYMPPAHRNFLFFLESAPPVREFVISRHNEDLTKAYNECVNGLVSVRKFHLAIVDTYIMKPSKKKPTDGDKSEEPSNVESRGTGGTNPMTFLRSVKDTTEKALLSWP
Protein cereblon/Indoleamine 2,3-dioxygenase 1, sequence (P14902 whole entry): as the sequence (P14902 whole entry) above
Protein cereblon/Indoleamine 2,3-dioxygenase 1, sequence (Q96SW2 whole entry): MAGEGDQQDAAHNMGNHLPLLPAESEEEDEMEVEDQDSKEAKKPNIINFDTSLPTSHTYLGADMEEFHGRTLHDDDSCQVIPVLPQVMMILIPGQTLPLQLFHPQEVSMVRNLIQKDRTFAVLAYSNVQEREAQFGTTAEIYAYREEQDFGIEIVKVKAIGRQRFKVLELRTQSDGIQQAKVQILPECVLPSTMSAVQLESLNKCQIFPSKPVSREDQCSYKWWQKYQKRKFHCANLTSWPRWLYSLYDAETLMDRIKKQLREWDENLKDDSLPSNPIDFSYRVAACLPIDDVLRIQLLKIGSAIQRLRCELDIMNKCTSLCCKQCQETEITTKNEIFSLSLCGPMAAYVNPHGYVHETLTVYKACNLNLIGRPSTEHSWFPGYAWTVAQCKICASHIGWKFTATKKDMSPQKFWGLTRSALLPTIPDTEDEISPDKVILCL

A word on the pIC50: it is the IC50 on a negative log10 scale, so that one unit is a factor of ten. Regarding `Cc1c(C)n(CC(O)CNc2ccccc2)c2ccccc12` (stereo not drawn), the pIC50 in [1] is 4.94.

A word on the pKi: it is −log10 of the Ki, conventionally taken in molar units. Regarding `O=C(c1ccccc1)C(c1ccccc1)C1(O)C(=O)Nc2c(Cl)cc(Cl)cc21` (stereo not drawn), the values for the pKi in data set [2] and in data set [3] were 6.00 and 5.40, respectively.

The term pKd denotes −log10 of the Kd, conventionally taken in molar units. Turning to `Clc1ccc(Nc2cn[nH]n2)cc1`, the negative-log Kd (pKd) in [4] is 5.64.

Turning to `COC1=C(OC)C(=O)C(Nc2cccc(Br)c2)=CC1=O`, the results for the pIC50 (in [5]; in the data set with HEK-293T; in data set [6]) were 4.95, 4.55 and 6.89, respectively.

In turn, `O=C(O)C[C@H]1CNC(=S)c2cc(Br)c(Br)n21` showed a pIC50 in data set [7] of 4.04.

Molecule `O=C1c2nnn(Cc3ccccc3)c2C(=O)c2nnn(Cc3ccccc3)c21` had a pIC50 in [6] of 9.00.

The pEC50 is the negative decadic logarithm of the EC50, by convention in mol/L. The molecule `O=C(Cc1cccc(N(CCCl)CCCl)c1)NCCNc1nonc1/C(=N/O)Nc1ccc(F)c(Br)c1` showed a pIC50 in data set [8] of 6.89. Besides, in [9], the pEC50 is 6.57.

Consider `NC(=O)c1n[nH]nc1-c1ccc(F)c(F)c1`, for which the pIC50 in data set [10] is 6.96. Besides, the pEC50 in data set [11] was 7.13.

One may read the CC50 as the concentration that lowers cell viability or growth by half. Higher therefore signals better tolerance by the cells. As a reminder, the DC50 is the concentration at which degradation of the target reaches its halfway point. Read a low DC50 as degradation at low concentration. For `O=C1CCC(N2C(=O)c3cccc(NCCOCCOCCOCCOCCOCCOCCOCCNCCNc4nonc4/C(=N/O)Nc4ccc(F)c(Br)c4)c3C2=O)C(=O)N1` (stereo not drawn), the CC50 at 48 h in data set [12] came out at 37400 nM. This molecule also came in with a DC50 in data set [13] of 2840 nM.

For the molecule `C=C1OC2=C(C(=O)c3ccccc3C2=O)C1(C)C`, in [9], the pIC50 is 6.00.

In the case of `N#Cc1ccc(C(F)(F)F)c(SCC(=O)Nc2ccc(F)c(Cl)c2)n1`, in data set [14], the pIC50 was 6.08.

On to `NS(=O)(=O)NCCNC(=O)c1n[nH]nc1-c1ccc(F)cc1`, for which the negative-log IC50 (pIC50) in [10] was 7.04. Moreover, the pEC50 in data set [11] is 7.13.

Turning to `CC1=C(CC(=O)c2sccc2C)C(=O)c2ccccc2C1=O`, the pIC50 in data set [15] was < 4.40; in data set [16], 5.47.

For the molecule `CC(C)CN(c1ccc(-c2c(C(=O)O)ccc3ccccc23)cc1NC(=O)Nc1ccc(Br)cc1F)C1CCCCC1`, the pIC50 in data set [17] is 8.59.

In the case of `CC(C)CN(CC(C)C)c1ccc([C@H](C)CC(=O)O)cc1NCNc1nc(C(F)(F)F)ns1`, the negative-log IC50 (pIC50) in data set [18] was 7.41; in data set [19], 8.23.

The molecule `O=C(CSc1nnc2scc(-c3ccccc3)n12)Nc1ccc2c(c1)OCO2` had a pIC50 in data set [20] of 5.52.

In the case of `Nc1nonc1/C(=N/O)N1Cc2ccccc2C1`, in [21], the pIC50 was 5.80.

Consider `C[C@@H](NC(=O)c1ccc(F)cc1)c1ccc2c(c1)CCN2C(=O)C1CCOCC1` [LY-3381916], for which, in data set [22], the pIC50 is 8.15.

As for `c1ccc2c(c1)[nH]c1cnccc12` [NORHARMANE], the pKi in [23] is 3.74.
